Conditions: 343.16 K, Liquid, Vibrating tube method

CCCCCC(=O)OCC(COC(=O)CCCCC)(COC(=O)CCCCC)COC(=O)CCCCC [pentaerythritol tetrahexanoate]
Conditions | mass density [kg/m3]
27885 kPa | 976.9
27922 kPa | 976.9
27953 kPa | 976.9
27990 kPa | 976.9
28022 kPa | 977
28053 kPa | 977
28081 kPa | 976.9
28111 kPa | 977
28135 kPa | 977
28160 kPa | 977.1
28189 kPa | 977.2
28213 kPa | 977
28238 kPa | 977.1
28267 kPa | 977
28292 kPa | 977.1
28613 kPa | 977.3
28638 kPa | 977.3
28664 kPa | 977.3
28694 kPa | 977.4
28719 kPa | 977.5
28745 kPa | 977.4
28777 kPa | 977.5
28799 kPa | 977.4
28830 kPa | 977.4
28855 kPa | 977.4
28886 kPa | 977.6
28912 kPa | 977.6
28938 kPa | 977.6
28969 kPa | 977.3
28995 kPa | 977.6
29021 kPa | 977.5
29048 kPa | 977.7
29360 kPa | 977.8
29386 kPa | 977.8
29419 kPa | 977.8
29533 kPa | 977.9
29560 kPa | 977.9
29588 kPa | 978
29620 kPa | 977.8
29648 kPa | 977.9
29680 kPa | 978
29708 kPa | 978
29735 kPa | 978
29824 kPa | 978
30097 kPa | 978.2
30127 kPa | 978.2
30157 kPa | 978.2
30193 kPa | 978.4
30518 kPa | 978.6
30540 kPa | 978.4
30566 kPa | 978.7
30588 kPa | 978.5
30610 kPa | 978.5
30637 kPa | 978.6
30659 kPa | 978.6
30682 kPa | 978.8
30704 kPa | 978.7
30731 kPa | 978.6
30753 kPa | 978.7
30776 kPa | 978.7
30798 kPa | 978.7
30825 kPa | 978.7
30848 kPa | 978.5
30871 kPa | 978.7
30894 kPa | 979
30917 kPa | 978.8
30944 kPa | 978.8
30966 kPa | 978.8
30993 kPa | 978.8
31016 kPa | 978.8
31038 kPa | 978.8
31065 kPa | 978.9
31088 kPa | 978.8
31111 kPa | 978.8
31134 kPa | 978.8
31161 kPa | 978.9
31185 kPa | 979
31208 kPa | 978.9
31236 kPa | 978.9
31259 kPa | 979
31282 kPa | 979
31304 kPa | 979.1
31332 kPa | 979
31355 kPa | 979
31382 kPa | 979.1
31405 kPa | 979
31429 kPa | 979.1
31480 kPa | 979.2
31504 kPa | 979.1
31527 kPa | 979.2
31555 kPa | 979.3
31578 kPa | 979.3
31606 kPa | 979.3
31630 kPa | 979.2
31654 kPa | 979.2
31682 kPa | 979.3
31706 kPa | 979.3
31729 kPa | 979.3
31758 kPa | 979.3
31782 kPa | 979.3
31806 kPa | 979.3
31830 kPa | 979.3
31859 kPa | 979.3
31883 kPa | 979.4
31912 kPa | 979.4
31936 kPa | 979.3
31960 kPa | 979.3
31984 kPa | 979.4
32013 kPa | 979.5
32037 kPa | 979.6
32061 kPa | 979.4
32090 kPa | 979.4
32114 kPa | 979.5
32144 kPa | 979.6
32169 kPa | 979.6
32193 kPa | 979.4
32217 kPa | 979.6
32247 kPa | 979.8
32272 kPa | 979.6
32296 kPa | 979.7
32326 kPa | 979.6
32351 kPa | 979.7
32381 kPa | 979.7
32406 kPa | 979.6
32431 kPa | 979.6
32456 kPa | 979.8
32486 kPa | 979.8
32511 kPa | 979.7
32536 kPa | 979.7
32562 kPa | 979.8
32592 kPa | 979.9
32617 kPa | 979.8
32647 kPa | 979.9
32672 kPa | 979.8
32698 kPa | 979.8
32724 kPa | 980
32755 kPa | 979.9
32780 kPa | 980
32806 kPa | 979.9
32837 kPa | 979.9
32863 kPa | 980
32889 kPa | 980
32920 kPa | 979.8
32945 kPa | 980
32971 kPa | 980
